The supplement of paper PMC10949913

Key:
Settings in all cases: 48 h
CU-ACC1 [1] = assay: AC50 viability; higher = less potent
Summary of the method: (§1)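 AC50 and area under the curve values derive from fitted concentration-response curves, restricted to inhibitory or non-responding curve classes. The curves came from three adrenocortical carcinoma cell lines in 1,536-well plates, each receiving 23 nL of every library compound at 11 concentrations. Viability was read by CellTiter-Glo luminescence after 48 h, normalised per plate to vehicle and empty-well controls.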

CU-ACC2 [2] = assay: AC50 viability; higher = less potent
Summary of the method: as §1

NCI-H295R [3] = assay: AC50 viability; higher = less potent
Summary of the method: as §1

CU-ACC1 [4] = assay: area under concentration-response curve (viability) (AUC (a.u.)); higher = less active
Summary of the method: as §1

CU-ACC2 [5] = assay: as above
Summary of the method: as §1

NCI-H295R [6] = assay: as above
Summary of the method: as §1

Row | SMILES | AC50 viability (CU-ACC1 [1]) | AC50 viability (CU-ACC2 [2]) | AC50 viability (NCI-H295R [3]) | area under concentration-response curve (CU-ACC1 [4]) | area under concentration-response curve (CU-ACC2 [5]) | area under concentration-response curve (NCI-H295R [6])
1 | CCN1CCN(Cc2ccc(NC(=O)Nc3ccc(Oc4cc(NC)ncn4)cc3)cc2C(F)(F)F)CC1 | 9.34 µM | 10.5 µM | 11.8 µM | 436 | 526 | 494
2 | C=CC(=O)Nc1cc2c(Nc3ccc(F)c(Cl)c3)ncnc2cc1OCCCN1CCOCC1 | 11.8 µM | 8.33 µM | 14.8 µM | 443 | 498 | 427
3 | Cc1ccc(C(N)=O)cc1Nc1nccc(-c2cn(C(C)C)c3cnccc23)n1 | 20.9 µM | 8.33 µM | 16.6 µM | 446 | 530 | 522
4 | CC(C)C[C@H](NC(=O)CNC(=O)c1cc(Cl)ccc1Cl)B1OC(=O)CC(CC(=O)O)(C(=O)O)O1 (stereo partly drawn) | 0.263 µM | 0.332 µM | 0.372 µM | 302 | 380 | 413
5 | CC(C)C1=C(O)C=C(O)C(=C1)C/2=N/NC(=O)N2C3=CC4=C(C=C3)[N](C)C=C4 | 0.0934 µM | 0.0186 µM | 0.132 µM | 322 | 309 | 416
6 | C[C@@]12O[C@@H](C[C@]1(O)CO)n1c3ccccc3c3c4c(c5c6ccccc6n2c5c31)CNC4=O | 6.61 µM | 9.34 µM | 14.8 µM | 380 | 346 | 407
7 | NC[C@@](O)(c1ccc(Cl)cc1)c1ccc(-c2cn[nH]c2)cc1 | 7.42 µM | 14.8 µM | 8.33 µM | 463 | 529 | 485
8 | C=CC(=O)Nc1cccc(Oc2nc(Nc3ccc(N4CCN(C)CC4)cc3OC)ncc2Cl)c1 | 8.33 µM | 7.42 µM | 9.34 µM | 442 | 526 | 502
9 | Cc1cc(Nc2cc(NC(=O)c3c(Cl)cccc3Cl)ccn2)nc(N)n1 | 11.8 µM | 5.9 µM | 13.2 µM | 457 | 522 | 439
10 | Cc1nc(Nc2n[nH]c3c2CN(C(=O)N[C@H](CN(C)C)c2ccccc2)C3(C)C)c2sccc2n1 | 9.34 µM | 5.25 µM | 9.34 µM | 433 | 442 | 462
11 | Nc1ccccc1NC(=O)c1ccc(CNc2nccc(-c3cccnc3)n2)cc1 | 2.09 µM | 5.25 µM | 2.35 µM | 309 | 445 | 339
12 | Cc1ccc(C(=O)Nc2ccc(CN3CCN(C)CC3)c(C(F)(F)F)c2)cc1C#Cc1cnc2cccnn12 | 7.42 µM | 9.34 µM | 7.42 µM | 402 | 524 | 487
13 | COc1cc2c(Oc3ccc4[nH]c(C)cc4c3F)ncnc2cc1OCCCN1CCCC1 | 20.9 µM | 20.9 µM | 20.9 µM | 491 | 566 | 461
14 | CCN(CC)CCOC1=CC=C(NC2=NC=C3\C=C(/C(=O)N(C)C3=N2)C4=C(Cl)C=CC=C4Cl)C=C1 | 7.42 µM | 7.42 µM | 4.17 µM | 436 | 511 | 461
15 | Cc1nc(NC(=O)N2CCC[C@H]2C(N)=O)sc1-c1ccnc(C(C)(C)C(F)(F)F)c1 | 8.33 µM | 9.34 µM | 18.6 µM | 439 | 457 | 421
16 | COc1cc2c(Nc3ccc(Br)cc3F)ncnc2cc1OCC1CCN(C)CC1 | 14.8 µM | 16.6 µM | 16.6 µM | 401 | 418 | 403
17 | CNCc1ccc(C)c(NC(=O)c2ccc(Nc3nc(-c4ccccc4)c4ccccc4n3)cc2)c1 | 16.6 µM | 23.5 µM | 18.6 µM | 471 | 575 | 521
18 | C[C@@H](Oc1cc(-n2cnc3ccc(CN4CCN(C)CC4)cc32)sc1C(N)=O)c1ccccc1C(F)(F)F | 11.8 µM | 16.6 µM | 11.8 µM | 471 | 540 | 446
19 | C[S+](=O)([O-])N1CCN(Cc2cc3nc(-c4cccc5[nH]ncc45)nc(N4CCOCC4)c3s2)CC1 | 0.934 µM | 16.6 µM | 0.661 µM | 420 | 402 | 406
20 | C=CC(=O)Nc1cccc(Sc2nc(Nc3ccc(N4CCN(C)CC4)cc3)ncc2Cl)c1 | 4.68 µM | 4.17 µM | 4.68 µM | 342 | 388 | 375
21 | O=C(Nc1c[nH]nc1-c1nc2cc(CN3CCOCC3)ccc2[nH]1)NC1CC1 | 8.33 µM | 2.63 µM | 16.6 µM | 423 | 386 | 350
22 | COc1cc(N2CCN(C)CC2)ccc1Nc1nccc(-c2cn(C)c3cnccc23)n1 | 33.2 µM | 18.6 µM | 20.9 µM | 451 | 507 | 464
23 | O=C(Nc1cc(C(F)(F)F)cc(C(F)(F)F)c1)c1cc(Cl)ccc1O | 2.63 µM | 1.86 µM | 2.95 µM | 429 | 493 | 463
